The subject of data set [1] is pig's epidermis. Conditions: pH 5.5.
Procedure: (§1) Dermatological compatibility was evaluated by determining the transepidermal water loss (TEWL) in a pig's epidermis. To this end, defined pieces of skin were treated with the various test solutions for 30 minutes at 40° C. and the TEWL value was gravimetrically determined. The test solutions were mixtures of 17% by weight Plantapon® PS 10 (sodium lauryl ether sulfate and Lauryl Glycoside, Cognis Dusseldorf) with 1.5% by weight fatty acid partial glycerides or glycerol ethers (see Table 1) in preservative-containing water (WAS 10% by weight). The pH was adjusted to 5.5 with citric acid.
Data set [2] concerns pig's epidermis. The data set can be described thus: Dermatological compatibility: transepidermal water loss (TEWL), gravimetric. Conditions: […] by weight partial glyceride or glycerol ether in 17% by weight Plantapon PS 10, pH 5.5; skin treated 30 minutes at 40° C.; lower = better compatibility.
Procedure: as §1

Where two headings read alike, the source gives them in different places.

From patent US20040197294A1, “Cosmetic and/or pharmaceutical preparations” (priority 2001, published 2004) come the findings set out here.

Take “Isostearic acid mono/diglyceride (65:35) [Example 7]”: the “TEWL [%-rel] = [treated/untreated * 100] − 100%” value with pig's epidermis [1] was determined as 22.0 %-rel.

For `CCCCCCCCOCC(O)CO` (centres unmarked) [Example 2, Glycerol monocapryl ether (>90)], the “TEWL [%-rel] = [treated/untreated * 100] − 100%” value in the data set with pig's epidermis [2] stood at 5.0 %-rel.

For “Isostearic acid monoglyceride (>90) [Example 8]”, in the data set with pig's epidermis [2], the “TEWL [%-rel] = [treated/untreated * 100] − 100%” value worked out at 18.5 %-rel.

As to “Lauric acid mono/diglyceride (65:35) [Example 9]”, in the data set with pig's epidermis [1], the “TEWL [%-rel] = [treated/untreated * 100] − 100%” value turned out to be 20.5 %-rel.

For the compound `CCCCCCCCCCCC(=O)OCC(O)CO` (centres unmarked) [Example 10, Lauric acid monoglyceride (>90)], in the data set with pig's epidermis [2], the “TEWL [%-rel] = [treated/untreated * 100] − 100%” value came to 10.5 %-rel.
